From patent US20240124442A1, “TRICYCLIC-AMIDO-BICYCLIC PRMT5 INHIBITORS” (AMGEN INC., priority 2021, published 2024)

tested on: HCT116 WT cells; test: HCT116 WT (parent) cell line proliferation / cell viability (CellTiter-Glo, 6 days); assay type: cell-based; conditions: Homo sapiens, HCT-116, 144 h, 6 days treatment
Method in brief: (§1)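 WT vs MTAP-null HCT116, 6 d drug, CTG readout. 1:3 × 8–9 pts (top 1/10 μM) or 1:2 × 22 pts (top 10/50 μM). IC50 by 4PL or Hill −1 fit.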

SMILES	IC50
CN(C(=O)c1cc2c(cc1F)nc(N)c1c2cnn1C)[C@@H]1COc2cc(OC(F)F)ccc21 (single isomer, unassigned) [Example 577]	16100 nM
CCN(C(=O)c1ccc2nc(N)c3c(c2c1)COC3)[C@H]1COCc2cc(Br)ccc21 (single isomer, unassigned) [Example 581]	17900 nM
CN(C(=O)c1cc2c3c(c(N)nc2cn1)COC3)[C@H]1COCc2ccc(C(F)(F)F)cc21 (single isomer, unassigned) [Example 584]	50000 nM
CN(C(=O)c1cc2c3c(c(N)nc2cn1)COC3)[C@@H]1CCOc2cc(C(F)(F)F)ccc21 (single isomer, unassigned) [Example 585]	12600 nM
CN(C(=O)c1cc2c3c(c(N)nc2cn1)COC3)[C@H]1CCOc2cc(C(F)(F)F)ccc21 (single isomer, unassigned) [Example 586]	10000 nM
CCN(C(=O)c1cc2c3c(c(N)nc2cn1)COC3)[C@H]1COCc2cc(Br)ccc21 (single isomer, unassigned) [Example 588]	10000 nM
CN(C(=O)c1cnc2nc(N)c3c(c2c1)COC3)[C@H]1COCc2cc(Br)ccc21 (single isomer, unassigned) [Example 589]	34700 nM
Cn1ncc2c(N)nc3ccc(C(=O)N(CC4CC4)[C@H]4COCc5nc(C(F)(F)F)ccc54)cc3c21 (single isomer, unassigned) [Example 594]	19400 nM
CN(C(=O)c1cc2c(cc1F)nc(N)c1cnn(C)c12)[C@H]1COCc2cc(C#N)ccc21 (single isomer, unassigned) [Example 596]	17100 nM
CN(C(=O)c1cc2c(cc1F)nc(N)c1cnn(C)c12)[C@H]1COCc2c1ccc(F)c2F (single isomer, unassigned) [Example 598]	10100 nM

Stronger by IC50, values ahead:

IC50	SMILES
5880 nM	CN(C(=O)c1ccc2nc(N)c3c(c2c1)COC3)[C@@H]1CCOc2cc(C(F)(F)F)ccc21 (single isomer, unassigned) [Example 578]
4510 nM	CN(C(=O)c1ccc2nc(N)c3c(c2c1)COC3)[C@H]1CCOc2cc(C(F)(F)F)ccc21 (single isomer, unassigned) [Example 579]
976 nM	CCN(C(=O)c1ccc2nc(N)c3c(c2c1)COC3)[C@@H]1COCc2cc(Br)ccc21 (single isomer, unassigned) [Example 580]
5580 nM	COc1ccc2c(c1)COC[C@H]2N(C)C(=O)c1cc2c3c(c(N)nc2cn1)COC3 (single isomer, unassigned) [Example 582]
8860 nM	CN(C(=O)c1cc2c3c(c(N)nc2cn1)COC3)[C@@H]1COCc2ccc(C(F)(F)F)cc21 (single isomer, unassigned) [Example 583]
573 nM	CCN(C(=O)c1cc2c3c(c(N)nc2cn1)COC3)[C@@H]1COCc2cc(Br)ccc21 (single isomer, unassigned) [Example 587]
4500 nM	CN(C(=O)c1cnc2nc(N)c3c(c2c1)COC3)[C@@H]1COCc2cc(Br)ccc21 (single isomer, unassigned) [Example 590]
1600 nM	CN(C(=O)c1cc2c3c(c(N)nc2cc1F)COC3)[C@@H]1COCc2cc(S(C)(=O)=O)ccc21 (single isomer, unassigned) [Example 591]
1020 nM	C[C@H]1OCc2c1c(N)nc1cc(F)c(C(=O)N(C)[C@@H]3COCc4cc(S(C)(=O)=O)ccc43)cc21 (single isomer, unassigned) [Example 592]
201 nM	Cn1ncc2c(N)nc3ccc(C(=O)N(CC4CC4)[C@@H]4COCc5nc(C(F)(F)F)ccc54)cc3c21 (single isomer, unassigned) [Example 593]
275 nM	CN(C(=O)c1cc2c(cc1F)nc(N)c1cnn(C)c12)[C@@H]1COCc2cc(C#N)ccc21 (single isomer, unassigned) [Example 595]
795 nM	CN(C(=O)c1cc2c(cc1F)nc(N)c1cnn(C)c12)[C@@H]1COCc2c1ccc(F)c2F (single isomer, unassigned) [Example 597]
3820 nM	CN(C(=O)c1cc2c(cc1F)nc(N)c1cnn(C)c12)[C@@H]1COCc2cc(C(F)(F)F)cnc21 (single isomer, unassigned) [Example 599]

tested on: HCT116 MTAP null cells; test: HCT116 MTAP null cell line proliferation / cell viability (CellTiter-Glo, 6 days); assay type: cell-based; conditions: 144 h; HCT116 MTAP null cells, 6 days treatment, CellTiter-Glo cell viability; read-out: HCT-116 MTAP null IC50
Method in brief: as §1

SMILES	IC50
CN(C(=O)c1cc2c(cc1F)nc(N)c1c2cnn1C)[C@@H]1COc2cc(OC(F)F)ccc21 (single isomer, unassigned) [Example 577]	132 nM
CCN(C(=O)c1ccc2nc(N)c3c(c2c1)COC3)[C@H]1COCc2cc(Br)ccc21 (single isomer, unassigned) [Example 581]	790 nM
CN(C(=O)c1cc2c3c(c(N)nc2cn1)COC3)[C@H]1COCc2ccc(C(F)(F)F)cc21 (single isomer, unassigned) [Example 584]	6990 nM
CN(C(=O)c1cc2c3c(c(N)nc2cn1)COC3)[C@@H]1CCOc2cc(C(F)(F)F)ccc21 (single isomer, unassigned) [Example 585]	256 nM
CN(C(=O)c1cc2c3c(c(N)nc2cn1)COC3)[C@H]1CCOc2cc(C(F)(F)F)ccc21 (single isomer, unassigned) [Example 586]	3020 nM
CCN(C(=O)c1cc2c3c(c(N)nc2cn1)COC3)[C@H]1COCc2cc(Br)ccc21 (single isomer, unassigned) [Example 588]	1980 nM
CN(C(=O)c1cnc2nc(N)c3c(c2c1)COC3)[C@H]1COCc2cc(Br)ccc21 (single isomer, unassigned) [Example 589]	7950 nM
Cn1ncc2c(N)nc3ccc(C(=O)N(CC4CC4)[C@H]4COCc5nc(C(F)(F)F)ccc54)cc3c21 (single isomer, unassigned) [Example 594]	228 nM
CN(C(=O)c1cc2c(cc1F)nc(N)c1cnn(C)c12)[C@H]1COCc2cc(C#N)ccc21 (single isomer, unassigned) [Example 596]	185 nM
CN(C(=O)c1cc2c(cc1F)nc(N)c1cnn(C)c12)[C@H]1COCc2c1ccc(F)c2F (single isomer, unassigned) [Example 598]	416 nM

Results, then the compound that gave them:

IC50	SMILES
222 nM	CN(C(=O)c1ccc2nc(N)c3c(c2c1)COC3)[C@@H]1CCOc2cc(C(F)(F)F)ccc21 (single isomer, unassigned) [Example 578]
2370 nM	CN(C(=O)c1ccc2nc(N)c3c(c2c1)COC3)[C@H]1CCOc2cc(C(F)(F)F)ccc21 (single isomer, unassigned) [Example 579]
19 nM	CCN(C(=O)c1ccc2nc(N)c3c(c2c1)COC3)[C@@H]1COCc2cc(Br)ccc21 (single isomer, unassigned) [Example 580]
76 nM	COc1ccc2c(c1)COC[C@H]2N(C)C(=O)c1cc2c3c(c(N)nc2cn1)COC3 (single isomer, unassigned) [Example 582]
403 nM	CN(C(=O)c1cc2c3c(c(N)nc2cn1)COC3)[C@@H]1COCc2ccc(C(F)(F)F)cc21 (single isomer, unassigned) [Example 583]
21 nM	CCN(C(=O)c1cc2c3c(c(N)nc2cn1)COC3)[C@@H]1COCc2cc(Br)ccc21 (single isomer, unassigned) [Example 587]
129 nM	CN(C(=O)c1cnc2nc(N)c3c(c2c1)COC3)[C@@H]1COCc2cc(Br)ccc21 (single isomer, unassigned) [Example 590]
26 nM	CN(C(=O)c1cc2c3c(c(N)nc2cc1F)COC3)[C@@H]1COCc2cc(S(C)(=O)=O)ccc21 (single isomer, unassigned) [Example 591]
21 nM	C[C@H]1OCc2c1c(N)nc1cc(F)c(C(=O)N(C)[C@@H]3COCc4cc(S(C)(=O)=O)ccc43)cc21 (single isomer, unassigned) [Example 592]
5 nM	Cn1ncc2c(N)nc3ccc(C(=O)N(CC4CC4)[C@@H]4COCc5nc(C(F)(F)F)ccc54)cc3c21 (single isomer, unassigned) [Example 593]
5 nM	CN(C(=O)c1cc2c(cc1F)nc(N)c1cnn(C)c12)[C@@H]1COCc2cc(C#N)ccc21 (single isomer, unassigned) [Example 595]
15 nM	CN(C(=O)c1cc2c(cc1F)nc(N)c1cnn(C)c12)[C@@H]1COCc2c1ccc(F)c2F (single isomer, unassigned) [Example 597]
64 nM	CN(C(=O)c1cc2c(cc1F)nc(N)c1cnn(C)c12)[C@@H]1COCc2cc(C(F)(F)F)cnc21 (single isomer, unassigned) [Example 599]
